From BindingDB's records for doi:10.1021/acs.jmedchem.9b00575 (Glaxosmithkline, 2019) come the findings set out here.

The structures appear in SMILES notation.

The experiment addresses Nucleotide-binding oligomerization domain-containing protein 2 (Homo sapiens, UniProt Q9HC29). In words: Inhibition of NOD2 in human monocytes assessed as reduction in MDP-induced TNFalpha production preincubated for 30 mins followed by MDP-stimulation and measured after 6 hrs by immunoassay.

Nucleotide-binding oligomerization domain-containing protein 2, sequence (Q9HC29 whole entry, the tested form may be a part): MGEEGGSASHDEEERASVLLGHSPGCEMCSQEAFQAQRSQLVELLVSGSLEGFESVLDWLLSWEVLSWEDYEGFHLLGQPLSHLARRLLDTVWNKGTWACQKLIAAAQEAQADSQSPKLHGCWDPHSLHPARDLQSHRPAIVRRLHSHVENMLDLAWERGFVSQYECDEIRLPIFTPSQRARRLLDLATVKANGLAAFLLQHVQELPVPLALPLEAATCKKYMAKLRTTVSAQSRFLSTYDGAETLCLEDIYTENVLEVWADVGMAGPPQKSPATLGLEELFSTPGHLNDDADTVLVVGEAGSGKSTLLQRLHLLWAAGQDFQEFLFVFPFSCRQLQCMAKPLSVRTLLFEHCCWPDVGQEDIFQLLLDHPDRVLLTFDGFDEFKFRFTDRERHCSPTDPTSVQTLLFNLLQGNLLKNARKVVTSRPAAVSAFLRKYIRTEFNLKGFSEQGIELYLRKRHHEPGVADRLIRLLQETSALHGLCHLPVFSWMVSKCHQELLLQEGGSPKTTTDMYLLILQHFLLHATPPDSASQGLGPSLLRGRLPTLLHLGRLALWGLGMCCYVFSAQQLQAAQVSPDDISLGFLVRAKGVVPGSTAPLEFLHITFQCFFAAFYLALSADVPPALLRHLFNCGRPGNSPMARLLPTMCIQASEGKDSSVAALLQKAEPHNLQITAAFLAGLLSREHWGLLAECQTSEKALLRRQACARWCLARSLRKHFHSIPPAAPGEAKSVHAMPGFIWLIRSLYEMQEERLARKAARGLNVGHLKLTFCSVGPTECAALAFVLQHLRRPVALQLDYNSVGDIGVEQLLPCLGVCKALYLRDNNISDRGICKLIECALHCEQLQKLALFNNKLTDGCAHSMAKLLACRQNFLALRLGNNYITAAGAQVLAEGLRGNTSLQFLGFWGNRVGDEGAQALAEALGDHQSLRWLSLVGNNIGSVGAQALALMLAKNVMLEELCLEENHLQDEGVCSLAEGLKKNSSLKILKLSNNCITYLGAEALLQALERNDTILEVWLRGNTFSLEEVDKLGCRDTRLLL

The IC50 is the concentration that inhibits the measured activity by half. Regarding `CC(C)(C)S(=O)(=O)c1cc2c(Nc3ccc4scnc4c3)ncnc2cc1OCCO`, the IC50 was 13 nM.
